Experimental data from ChEMBL document CHEMBL1201862, “PubChem BioAssay data set” (2004).
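Growth conditions: 96-well plates. Treatment: test compound, 48 hours, 5 concentrations. Analysis: linear interpolation between bracketing concentrations; unreached endpoints set to highest concentration. GI50 marks 50% less growth.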 Activity calls are given as the source filed them. Cut-off read from the data, not from the text of the source: active = GI50 up to about 1.1 µM and inactive = higher. Where a SMILES comes first, the peptide text is derived from it. The star is where a group is joined. Cbz = O=C(OCc1ccccc1)*

Columns and labels:
Experiment in all cases: NCI-60 cell line screen, 48 h
[1] = test system: 786-0
[2] = test system: BT-549
[3] = test system: CAKI-1
[4] = test system: HCT-15
[5] = test system: K562
[6] = test system: LOX IMVI
[7] = test system: MCF7
[8] = test system: MDA-MB-231
[9] = test system: MDA-MB-435
[10] = test system: NCI-H226
[11] = test system: OVCAR-4
[12] = test system: RXF 393
[13] = test system: SF-295
[14] = test system: SNB-75
[15] = test system: UACC-62
[16] = test system: HL-60
[17] = test system: HT-29
[18] = test system: MDA-N
[19] = test system: SN12C

SMILES	GI50 [1]	GI50 [2]	GI50 [3]	GI50 [4] [µM]	GI50 [5]	GI50 [6]	GI50 [7]	GI50 [8]	GI50 [9]	GI50 [10]	GI50 [11]	GI50 [12]	GI50 [13]	GI50 [14]	GI50 [15]	GI50 [16]	GI50 [17]	GI50 [18]	GI50 [19]
C[C@@H]1OC(=O)C[C@H]2CC(=O)N(CCC3CN(S(=O)(=O)C(F)(F)F)c4ccc(Cc5ccc6c(c5)C(CCN5C[C@H]7[C@@H](CC(=O)O[C@H]7C)CC5=O)CN6S(=O)(=O)C(F)(F)F)cc43)C[C@@H]21 (stereo not given in full)	> 100 µM (inactive)	> 100 µM (inactive)	> 100 µM (inactive)	> 100	> 100 µM (inactive)	> 100 µM (inactive)	> 100 µM (inactive)	> 100 µM (inactive)	> 100 µM (inactive)	> 100 µM (inactive)	> 100 µM (inactive)	> 100 µM (inactive)	> 100 µM (inactive)	> 100 µM (inactive)	> 100 µM (inactive)	–	–	–	–
CC(=O)Nc1ccc(/C=C2/NC(=S)N(/C=C3\C(=O)Oc4ccccc4C3=O)C2=O)cc1	69 µM (inactive)	–	49.5 µM (inactive)	32.7	49.4 µM (inactive)	> 100 µM (inactive)	> 100 µM (inactive)	16.2 µM (inactive)	75.5 µM (inactive)	> 100 µM (inactive)	51.1 µM (inactive)	> 100 µM (inactive)	49.8 µM (inactive)	15.8 µM (inactive)	77.3 µM (inactive)	40.5 µM (inactive)	44.9 µM (inactive)	52 µM (inactive)	94.6 µM (inactive)
Nc1nc(NNc2cccc(F)c2)cc(=O)[nH]1	18.8 µM (inactive)	77.1 µM (inactive)	–	42.5	36.1 µM (inactive)	21.1 µM (inactive)	29.5 µM (inactive)	42.2 µM (inactive)	25.9 µM (inactive)	> 100 µM (inactive)	51.6 µM (inactive)	–	33.3 µM (inactive)	–	–	23.1 µM (inactive)	22.5 µM (inactive)	–	65.8 µM (inactive)
Cc1ccc(/C=C2\NC(=S)N(CN3CCCCC3)C2=O)cc1	47.3 µM (inactive)	–	–	36.1	43 µM (inactive)	34.4 µM (inactive)	28.4 µM (inactive)	> 100 µM (inactive)	46.5 µM (inactive)	55.7 µM (inactive)	39.4 µM (inactive)	–	44.6 µM (inactive)	> 100 µM (inactive)	33.3 µM (inactive)	–	24.2 µM (inactive)	65.2 µM (inactive)	63.7 µM (inactive)
CCOC(=O)CCC(NC(=O)CNC(=O)CNC(=O)C(CCC(=O)OCC)NC(=O)C(CCC(=O)OCC)NC(=O)C(CCC(=O)OCC)NC(=O)OCc1ccccc1)C(=O)NC(CCC(=O)OCC)C(=O)NC(CCC(=O)OCC)C(=O)OCC (stereo not given) (Cbz-E(OEt)E(OEt)E(OEt)GGE(OEt)E(OEt)E(OEt)-OEt; configuration not given here)	> 75 µM (inactive)	–	> 75 µM (inactive)	> 75	–	> 75 µM (inactive)	> 75 µM (inactive)	> 75 µM (inactive)	> 75 µM (inactive)	–	> 75 µM (inactive)	> 75 µM (inactive)	> 75 µM (inactive)	> 75 µM (inactive)	> 75 µM (inactive)	–	> 75 µM (inactive)	> 75 µM (inactive)	> 75 µM (inactive)
COC(=O)/C=C(\C)C(=O)N(C)c1ccccc1I	> 100 µM (inactive)	–	72.1 µM (inactive)	> 100	> 100 µM (inactive)	> 100 µM (inactive)	> 100 µM (inactive)	> 100 µM (inactive)	> 100 µM (inactive)	> 100 µM (inactive)	> 100 µM (inactive)	> 100 µM (inactive)	> 100 µM (inactive)	76.9 µM (inactive)	> 100 µM (inactive)	–	–	> 100 µM (inactive)	> 100 µM (inactive)
CN1C/C(=C\c2ccc(Cl)cc2)C(=O)/C(=C/c2ccc(Cl)cc2)C1	0.354 µM (active)	–	1.3 µM (inactive)	0.731	0.33 µM (active)	0.237 µM (active)	0.453 µM (active)	1.12 µM (active)	1.72 µM (inactive)	4.45 µM (inactive)	1.11 µM (active)	0.834 µM (active)	0.667 µM (active)	0.635 µM (active)	2.22 µM (inactive)	0.676 µM (active)	0.294 µM (active)	0.861 µM (active)	0.771 µM (active)
COC(=O)[C@@H]1CN(C(C)=O)C(=O)N1	> 100 µM (inactive)	–	> 100 µM (inactive)	> 100	> 100 µM (inactive)	> 100 µM (inactive)	–	5.06 µM (inactive)	> 100 µM (inactive)	> 100 µM (inactive)	> 100 µM (inactive)	> 100 µM (inactive)	> 100 µM (inactive)	> 100 µM (inactive)	> 100 µM (inactive)	> 100 µM (inactive)	> 100 µM (inactive)	> 100 µM (inactive)	> 100 µM (inactive)
O=C(NCCCl)NCc1ccccc1	> 100 µM (inactive)	–	> 100 µM (inactive)	> 100	> 100 µM (inactive)	> 100 µM (inactive)	> 100 µM (inactive)	> 100 µM (inactive)	> 100 µM (inactive)	> 100 µM (inactive)	> 100 µM (inactive)	> 100 µM (inactive)	> 100 µM (inactive)	> 100 µM (inactive)	> 100 µM (inactive)	> 100 µM (inactive)	> 100 µM (inactive)	> 100 µM (inactive)	> 100 µM (inactive)
CCSc1cc2c(cc1O)CC[C@@H]1[C@@H]2CC[C@]2(C)[C@@H](O)CC[C@@H]12	12.2 µM (inactive)	–	12.6 µM (inactive)	5.68	4.12 µM (inactive)	10.8 µM (inactive)	10.3 µM (inactive)	4.94 µM (inactive)	1.98 µM (inactive)	15 µM (inactive)	18.3 µM (inactive)	21.5 µM (inactive)	–	15.2 µM (inactive)	11.2 µM (inactive)	4.54 µM (inactive)	10.8 µM (inactive)	2.67 µM (inactive)	17.7 µM (inactive)
CCOC(=O)[C@@H]1OC(c2ccccc2)O[C@H]1C(=O)OCC	> 100 µM (inactive)	–	–	> 100	> 100 µM (inactive)	> 100 µM (inactive)	> 100 µM (inactive)	> 100 µM (inactive)	> 100 µM (inactive)	> 100 µM (inactive)	> 100 µM (inactive)	–	> 100 µM (inactive)	> 100 µM (inactive)	> 100 µM (inactive)	–	> 100 µM (inactive)	> 100 µM (inactive)	> 100 µM (inactive)
N#CCSc1c(-c2ccccc2)c(=O)n(-c2ccccc2)c(=S)n1-c1ccccc1	> 100 µM (inactive)	–	> 100 µM (inactive)	> 100	> 100 µM (inactive)	> 100 µM (inactive)	> 100 µM (inactive)	–	90.6 µM (inactive)	> 100 µM (inactive)	> 100 µM (inactive)	–	> 100 µM (inactive)	20.1 µM (inactive)	32.9 µM (inactive)	> 100 µM (inactive)	> 100 µM (inactive)	95.3 µM (inactive)	> 100 µM (inactive)
O=c1ccn(C2OC(CO)C(O)C2F)c(=O)n1Cc1ccccc1 (stereo not given)	> 100 µM (inactive)	–	> 100 µM (inactive)	> 100	> 100 µM (inactive)	> 100 µM (inactive)	> 100 µM (inactive)	> 100 µM (inactive)	> 100 µM (inactive)	> 100 µM (inactive)	–	> 100 µM (inactive)	> 100 µM (inactive)	> 100 µM (inactive)	> 100 µM (inactive)	> 100 µM (inactive)	> 100 µM (inactive)	> 100 µM (inactive)	> 100 µM (inactive)
C#CC1=CC(=O)C(OC)=CC1=O	3.01 µM (inactive)	–	18.6 µM (inactive)	16.4	5.06 µM (inactive)	17.6 µM (inactive)	14.8 µM (inactive)	16.4 µM (inactive)	18.1 µM (inactive)	19.3 µM (inactive)	–	15.2 µM (inactive)	29.4 µM (inactive)	< 0.01 µM (active)	15.7 µM (inactive)	2.44 µM (inactive)	23.3 µM (inactive)	19.1 µM (inactive)	17.6 µM (inactive)
Cc1ccc2c(c1)CC1(Cc3cc(C)ccc3C1=O)C2=O	> 100 µM (inactive)	–	> 100 µM (inactive)	> 100	> 100 µM (inactive)	> 100 µM (inactive)	> 100 µM (inactive)	> 100 µM (inactive)	> 100 µM (inactive)	–	> 100 µM (inactive)	> 100 µM (inactive)	> 100 µM (inactive)	> 100 µM (inactive)	–	> 100 µM (inactive)	> 100 µM (inactive)	> 100 µM (inactive)	–
N#Cc1nc(C(=O)c2ccccc2)oc1N	> 100 µM (inactive)	–	> 100 µM (inactive)	> 100	> 100 µM (inactive)	> 100 µM (inactive)	> 100 µM (inactive)	> 100 µM (inactive)	> 100 µM (inactive)	–	> 100 µM (inactive)	–	–	0.052 µM (active)	> 100 µM (inactive)	> 100 µM (inactive)	> 100 µM (inactive)	> 100 µM (inactive)	> 100 µM (inactive)
CCC1(O)CC(OC2CC(N(C)C)C(OC3CC(O)C(OC4OC(C)C(=O)C=C4N)C(C)O3)C(C)O2)c2c(O)c3c(c(O)c2C1C(=O)OC)C(=O)c1cccc(O)c1C3=O (stereo not given)	0.0021 µM (active)	–	0.00489 µM (active)	0.0418	0.000196 µM (active)	0.0115 µM (active)	0.002 µM (active)	0.0583 µM (active)	0.00371 µM (active)	0.0139 µM (active)	0.01 µM (active)	–	0.00134 µM (active)	0.0311 µM (active)	0.0106 µM (active)	0.00154 µM (active)	0.00475 µM (active)	0.0048 µM (active)	0.0259 µM (active)
